Experimental findings from patent US9073876B2, “Flap modulators” (JANSSEN PHARMACEUTICA NV, priority 2013, dated 2015) are described below.

What is called Ki is a measure of affinity in units of concentration, obtained from inhibition or displacement. A word on the IC50: it is the concentration that gives 50% inhibition.

In one assay the target is human FLAP (Homo sapiens (Human), UniProt P20292). Description: FLAP binding assay (HTRF). The following applies: human FLAP-containing membranes, HTRF format; average of two assay plates, duplicates; read-out: FLAP Binding wild type HTRF Ki. An outline of the steps: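 Binding values are averages from two separate assay plates, with each sample run in duplicate per plate. Data are expressed as an HTRF ratio.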
Chain of human FLAP (P20292 whole entry): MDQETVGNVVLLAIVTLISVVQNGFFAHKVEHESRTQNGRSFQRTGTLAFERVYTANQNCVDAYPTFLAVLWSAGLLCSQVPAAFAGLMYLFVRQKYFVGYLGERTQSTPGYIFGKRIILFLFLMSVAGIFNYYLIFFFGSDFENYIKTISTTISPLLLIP
A general note: In TR-FRET formats the signal depends on donor and acceptor labels being close together.

In assay [1] the test system is leukotriene pathway in human whole blood (LTB4 levels). The experiment in a line: Human whole blood assay (LTB4). In kind it is cell-based. The note with it: human whole blood diluted 1:1 in RPMI, stimulated with calcium ionophore A23187; single replicate. In outline: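 Heparinised human whole blood diluted 1:1 in RPMI, pre-incubated 15 min at 37° Celsius with compound, then stimulated with A23187 (7 μg/mL) for 30 min at 37° Celsius. Plasma LTB4 measured by immunoassay kit; IC50 from 4-parameter fit; single replicate per plate, at least one healthy donor.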

Molecules are shown by their SMILES.

For `COc1cnc(Oc2c(C3CCC3)ccc(-c3cnc(N)cn3)c2F)nc1` [Example 94, 5-{4-Cyclobutyl-2-fluoro-3-[(5-methoxypyrimidin-2-yl)oxy]phenyl}pyrazin-2-amine], the Ki at human FLAP worked out at 27 nM. For the same compound, in assay [1], the IC50 is 101 nM.

On to `CS(=O)(=O)c1ccnc(Oc2c(C3CCC3)ccc(-c3cnc(N)cn3)c2F)n1` [Example 95, 5-(4-Cyclobutyl-2-fluoro-3-{[4-(methylsulfonyl)pyrimidin-2-yl]oxy}phenyl)pyrazin-2-amine], for which the inhibition constant Ki on human FLAP amounted to 5 nM. The IC50 in assay [1] was above 1000 nM.

As to `Cc1cc(Oc2c(C3CCC3)ccc(-c3cnc(N)cn3)c2F)nc(N)n1` [Example 96, 4-[3-(5-aminopyrazin-2-yl)-6-cyclobutyl-2-fluorophenoxy]-6-methylpyrimidin-2-amine], the Ki at human FLAP worked out at 7 nM. The half-inhibitory concentration (IC50) in assay [1] came to 33.8 nM.

Regarding `COc1cc(Oc2c(C3CCC3)ccc(-c3cnc(N)cn3)c2F)ncn1` [Example 97, 5-{4-Cyclobutyl-2-fluoro-3-[(6-methoxypyrimidin-4-yl)oxy]phenyl}pyrazin-2-amine], the inhibitory constant (Ki) at human FLAP is 32 nM. Moreover, in assay [1], the IC50 is 153 nM.

Consider `Nc1cnc(-c2ccc(C3CCC3)c(Oc3cc(O)ncn3)c2F)cn1` [Example 98, 6-[3-(5-Aminopyrazin-2-yl)-6-cyclobutyl-2-fluorophenoxy]pyrimidin-4-ol], for which the inhibition constant (Ki) on human FLAP came out at 8 nM. Also, in assay [1], the IC50 was determined as 175 nM.

As for `COc1cc(Oc2c(C3CCC3)ccc(-c3cnc(N)cn3)c2F)nc(N)n1` [Example 99, 4-[3-(5-Aminopyrazin-2-yl)-6-cyclobutyl-2-fluorophenoxy]-6-methoxypyrimidin-2-amine], the inhibition constant Ki on human FLAP was determined as 6 nM. For the same compound, the 50% inhibitory concentration (IC50) in assay [1] worked out at 40.7 nM.

As to `COc1nc(N)cc(Oc2c(C3CCC3)ccc(-c3cnc(N)cn3)c2F)n1` [Example 100, 6-[3-(5-Aminopyrazin-2-yl)-6-cyclobutyl-2-fluorophenoxy]-2-methoxypyrimidin-4-amine], the inhibition constant (Ki) on human FLAP came to 1 nM. Also, the half-maximal inhibitory concentration (IC50) in assay [1] was 12.6 nM.

In the case of `N#Cc1ccc(Oc2c(C3CCC3)ccc(-c3cnc(N)cn3)c2F)cc1` [Example 101, 4-[3-(5-Aminopyrazin-2-yl)-6-cyclobutyl-2-fluorophenoxy]benzonitrile], at human FLAP, the Ki amounted to 23 nM. For the same compound, in assay [1], the half-inhibitory concentration (IC50) is 914 nM.

For the compound `Nc1cnc(-c2ccc(C3CCC3)c(Oc3cccc(C(F)(F)F)n3)c2F)cn1` [Example 102, 5-(4-Cyclobutyl-2-fluoro-3-{[6-(trifluoromethyl)pyridin-2-yl]oxy}phenyl)pyrazin-2-amine], the Ki on human FLAP was determined as 2 nM. In assay [1], the IC50 amounted to 103 nM.

As for `COC(=O)c1ccc(Oc2c(C3CCC3)ccc(-c3cnc(N)cn3)c2F)cc1` [Example 103, Methyl 4-[3-(5-aminopyrazin-2-yl)-6-cyclobutyl-2-fluorophenoxy]benzoate], the inhibition constant Ki at human FLAP stood at 35 nM. Moreover, the IC50 in assay [1] was 675 nM.

Regarding `Nc1cnc(-c2ccc(C3CCC3)c(Oc3ncc(C(F)(F)F)cn3)c2F)cn1` [Example 104, 5-(4-Cyclobutyl-2-fluoro-3-{[5-(trifluoromethyl)pyrimidin-2-yl]oxy}phenyl)pyrazin-2-amine], the inhibitory constant (Ki) on human FLAP stood at 100 nM. Also, in assay [1], the IC50 was determined as 2810 nM.

Take `Nc1cnc(-c2ccc(C3CCC3)c(Oc3ccc(C(F)(F)F)nn3)c2F)cn1` [Example 106, 5-(4-Cyclobutyl-2-fluoro-3-{[6-(trifluoromethyl)pyridazin-3-yl]oxy}phenyl)pyrazin-2-amine]: on human FLAP, the Ki worked out at 84 nM. The IC50 in assay [1] was 376 nM.

`COC(=O)c1ccc(Oc2c(C3CCC3)ccc(-c3cnc(N)cn3)c2F)nc1` [Example 107, Methyl 6-[3-(5-aminopyrazin-2-yl)-6-cyclobutyl-2-fluorophenoxy]pyridine-3-carboxylate]: the inhibition constant Ki at human FLAP is 6.9 nM. Also, the half-maximal inhibitory concentration (IC50) in assay [1] amounted to 177 nM.

For the compound `N#Cc1ccc(Oc2c(C3CCC3)ccc(-c3cnc(N)cn3)c2F)cn1` [Example 108, 5-[3-(5-Aminopyrazin-2-yl)-6-cyclobutyl-2-fluorophenoxy]pyridine-2-carbonitrile], the Ki on human FLAP worked out at 24.6 nM. Besides, the half-inhibitory concentration (IC50) in assay [1] was found to be 1310 nM.

Take `N#Cc1cc(Oc2c(C3CCC3)ccc(-c3cnc(N)cn3)c2F)ccn1` [Example 109, 4-[3-(5-Aminopyrazin-2-yl)-6-cyclobutyl-2-fluorophenoxy]pyridine-2-carbonitrile]: on human FLAP, the Ki was 8.9 nM. The half-maximal inhibitory concentration (IC50) in assay [1] is 308 nM.

For the compound `N#Cc1cccnc1Oc1c(C2CCC2)ccc(-c2cnc(N)cn2)c1F` [Example 110, 2-[3-(5-Aminopyrazin-2-yl)-6-cyclobutyl-2-fluorophenoxy]pyridine-3-carbonitrile], the inhibition constant (Ki) on human FLAP came to 2.4 nM. Further, the IC50 in assay [1] was 52.2 nM.

For `N#Cc1cccc(Oc2c(C3CCC3)ccc(-c3cnc(N)cn3)c2F)n1` [Example 111, 6-[3-(5-Aminopyrazin-2-yl)-6-cyclobutyl-2-fluorophenoxy]pyridine-2-carbonitrile], the Ki at human FLAP worked out at 1.9 nM. Moreover, the IC50 in assay [1] was found to be 65.4 nM.

As for `N#Cc1ncccc1Oc1c(C2CCC2)ccc(-c2cnc(N)cn2)c1F` [Example 112, 3-[3-(5-Aminopyrazin-2-yl)-6-cyclobutyl-2-fluorophenoxy]pyridine-2-carbonitrile], the inhibitory constant (Ki) on human FLAP stood at 14.8 nM. For the same compound, in assay [1], the half-inhibitory concentration (IC50) was found to be 181 nM.

`Nc1cnc(-c2ccc(C3CCC3)c(Oc3ccc(C(F)(F)F)cn3)c2F)cn1` [Example 113, 5-(4-Cyclobutyl-2-fluoro-3-{[5-(trifluoromethyl)pyridin-2-yl]oxy}phenyl)pyrazin-2-amine]: the Ki on human FLAP came out at 27 nM. Further, the IC50 in assay [1] worked out at 608 nM.

Consider `Nc1cnc(-c2ccc(C3CCC3)c(Oc3ccc(S(F)(F)(F)(F)F)cc3)c2F)cn1` [Example 115, 5-{4-Cyclobutyl-2-fluoro-3-[4-(pentafluoro-lambda~6~- sulfanyl)phenoxy]phenyl}pyrazin-2-amine], for which the Ki at human FLAP stood at 297 nM. In assay [1], the IC50 is 1110 nM.

In the case of `Nc1cnc(-c2ccc(C3CCC3)c(Oc3ncccn3)c2F)cn1` [Example 118, 5-[4-Cyclobutyl-2-fluoro-3-(pyrimidin-2-yloxy)phenyl]pyrazin-2-amine], on human FLAP, the inhibition constant Ki came to 10.5 nM. Also, the concentration for half-maximal inhibition (IC50) in assay [1] is 65.7 nM.

Consider `Nc1cnc(-c2ccc(C3CCC3)c(Oc3nccc(N)n3)c2F)cn1` [Example 119, 2-[3-(5-Aminopyrazin-2-yl)-6-cyclobutyl-2-fluorophenoxy]pyrimidin-4-amine], for which the inhibition constant (Ki) at human FLAP worked out at 6 nM. Besides, the IC50 in assay [1] was determined as 26.3 nM.

For the compound `Nc1cnc(-c2ccc(C3CCC3)c(Oc3ncccc3Cl)c2F)cn1` [Example 122, 5-{3-[(3-Chloropyridin-2-yl)oxy]-4-cyclobutyl-2-fluorophenyl}pyrazin-2-amine], the Ki on human FLAP was determined as 4 nM. The IC50 in assay [1] was 460 nM.

For `CS(=O)(=O)c1ccc(Oc2c(C3CCC3)ccc(-c3cnc(N)cn3)c2F)c(Cl)c1` [Example 123, 5-{3-[2-Chloro-4-(methylsulfonyl)phenoxy]-4-cyclobutyl-2-fluorophenyl}pyrazin-2-amine], the inhibition constant (Ki) on human FLAP stood at 7 nM. Further, the IC50 in assay [1] is 4480 nM.

Regarding `Nc1cnc(-c2ccc(C3CCC3)c(Oc3ccnc(C(F)(F)F)n3)c2F)cn1` [Example 124, 5-(4-Cyclobutyl-2-fluoro-3-{[2-(trifluoromethyl)pyrimidin-4-yl]oxy}phenyl)pyrazin-2-amine], the Ki on human FLAP is 3 nM. The IC50 in assay [1] was 119 nM.

As for `Cc1cc(Oc2c(C3CCC3)ccc(-c3cnc(N)cn3)c2F)ccc1S(C)(=O)=O` [Example 126, 5-{4-Cyclobutyl-2-fluoro-3-[3-methyl-4-(methylsulfonyl)phenoxy]phenyl}pyrazin-2-amine], on human FLAP, the Ki was found to be 10.7 nM. For the same compound, in assay [1], the IC50 stood at 406 nM.

`COc1cccnc1Oc1c(C2CCC2)ccc(-c2cnc(N)cn2)c1F` [Example 129, 5-{4-Cyclobutyl-2-fluoro-3-[(3-methoxypyridin-2-yl)oxy]phenyl}pyrazin-2-amine]: the Ki on human FLAP is 119 nM. Also, the IC50 in assay [1] is 281 nM.

In the case of `Nc1cnc(-c2ccc(C3CCC3)c(Oc3ccnc(N)n3)c2F)cn1` [Example 130, 4-[3-(5-Aminopyrazin-2-yl)-6-cyclobutyl-2-fluorophenoxy]pyrimidin-2-amine], the Ki at human FLAP was 3.7 nM. The IC50 in assay [1] worked out at 84.1 nM.

Consider `Nc1cnc(-c2ccc(C3CCC3)c(Oc3nccc(C(F)(F)F)n3)c2F)cn1` [Example 131, 5-(4-Cyclobutyl-2-fluoro-3-{[4-(trifluoromethyl)pyrimidin-2-yl]oxy}phenyl)pyrazin-2-amine], for which, at human FLAP, the inhibition constant Ki amounted to 5.6 nM. Further, in assay [1], the IC50 was 67.9 nM.

As for `CS(=O)(=O)c1ccc(Oc2c(C3CCC3)ccc(-c3cnc(N)cn3)c2F)c(C#N)c1` [Example 132, 2-[3-(5-Aminopyrazin-2-yl)-6-cyclobutyl-2-fluorophenoxy]-5-(methylsulfonyl)benzonitrile], the inhibitory constant (Ki) on human FLAP amounted to 17 nM. Besides, the half-inhibitory concentration (IC50) in assay [1] is 133 nM.

Turning to `CS(=O)(=O)c1ccc(Oc2c(C3CCC3)ccc(-c3cnc(N)cn3)c2F)cc1C(F)(F)F` [Example 133, 5-{4-Cyclobutyl-2-fluoro-3-[4-(methylsulfonyl)-3-(trifluoro-methyl)phenoxy]phenyl}pyrazin-2-amine], the inhibitory constant (Ki) on human FLAP was found to be 10.2 nM. The IC50 in assay [1] stood at 79.6 nM.

`Cc1nccc(Oc2c(C3CCC3)ccc(-c3cnc(N)cn3)c2F)n1` [Example 134, 5-{4-Cyclobutyl-2-fluoro-3-[(2-methylpyrimidin-4-yl)oxy]phenyl}pyrazin-2-amine]: the inhibition constant Ki at human FLAP was found to be 6.2 nM. Further, the IC50 in assay [1] is 39.7 nM.

As to `Nc1cnc(-c2ccc(C3CCC3)c(Oc3cc(N)ncn3)c2F)cn1` [Example 136, 6-[3-(5-Aminopyrazin-2-yl)-6-cyclobutyl-2-fluorophenoxy]pyrimidin-4-amine], the Ki at human FLAP was 3.5 nM. In addition, the IC50 in assay [1] came to 45.9 nM.
